Patent US6903132B2, “Non-peptide GnRH agents, pharmaceutical compositions and methods for their use” (Agouron Pharmaceuticals, Inc., priority 2002, dated 2005)
“And” between values parts separate entries of the source, which are not always exact repeats. Equal entries are not always repeated.

What was measured:
[1] = target: T1, human GnRH receptors (Homo sapiens, UniProt P30968); experiment: Radioligand binding assay: inhibition of binding of 125I-GnRH-A to GnRH receptors (membranes); conditions: Human GnRH receptor; competition with 125I-GnRH-A; Ki calculated from IC50 (Cheng et al.)
T1 construct: expressed in transfected cells; host or cells: HEK 293
T1 sequence (P30968 1-328): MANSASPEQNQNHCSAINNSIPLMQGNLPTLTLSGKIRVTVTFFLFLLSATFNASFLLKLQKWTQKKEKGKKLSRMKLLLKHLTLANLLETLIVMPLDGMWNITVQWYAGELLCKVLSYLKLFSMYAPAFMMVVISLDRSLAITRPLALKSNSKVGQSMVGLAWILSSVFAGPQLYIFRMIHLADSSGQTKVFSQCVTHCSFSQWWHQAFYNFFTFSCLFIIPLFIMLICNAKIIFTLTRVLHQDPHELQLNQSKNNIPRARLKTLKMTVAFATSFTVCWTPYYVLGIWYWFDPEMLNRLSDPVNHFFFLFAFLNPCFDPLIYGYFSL
In short: (§1)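 Membranes from HEK 293 expressing mouse or human receptor, or rat pituitaries, incubated 1 h at RT with ~0.04–0.06 nM ¹²⁵I-[des-Gly¹⁰,D-Ala⁶]GnRH ethylamide and competitor (0.1–10,000 nM) in HEPES pH 7.4 with MgCl2, EDTA, BSA. Filtration onto PEI-soaked GF/C filters, scintillation counting; Ki from IC50 by Cheng–Prusoff.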

[2] = In vitro metabolism: disappearance of parent compound in liver microsomes; type: in vitro ADME; conditions: human liver microsomes; 5 uM compound, 0.5 mg/ml microsomal protein, 2 mM NADPH, 30 minutes at 37° C.
Description: (§2) Human, rat, dog, and monkey liver microsomes are isolated by differential centrifugation. Specimens of human liver were obtained from the International Institute for the Advancement of Medicine (Scranton, Pa.). The disappearance of the parent compound is studied in a mixture containing 5 uM compound, 0.5 mg/ml microsomal protein, and 2 mM NADPH in 50 mM K Phosphate buffer, pH 7.4. Samples are incubated for 30 minutes at 37° C. The reaction is terminated by the addition of acetonitrile and compounds analyzed by LC-MS as described above.

[3] = target: T2, rat GnRH receptor (Rattus norvegicus, UniProt P30969); experiment: Radioligand binding assay: inhibition of binding of 125I-GnRH-A to GnRH receptors (membranes); conditions: competition with 125I-GnRH-A, Ki calculated from IC50 (Cheng et al.)
T2 construct: rat pituitaries (Pel Freez Biologicals, Rogers, Ark.) are homogenized in buffer A; tissue Pel Freez Biologicals; host or cells: rat pituitaries
T2 sequence (P30969 1-327): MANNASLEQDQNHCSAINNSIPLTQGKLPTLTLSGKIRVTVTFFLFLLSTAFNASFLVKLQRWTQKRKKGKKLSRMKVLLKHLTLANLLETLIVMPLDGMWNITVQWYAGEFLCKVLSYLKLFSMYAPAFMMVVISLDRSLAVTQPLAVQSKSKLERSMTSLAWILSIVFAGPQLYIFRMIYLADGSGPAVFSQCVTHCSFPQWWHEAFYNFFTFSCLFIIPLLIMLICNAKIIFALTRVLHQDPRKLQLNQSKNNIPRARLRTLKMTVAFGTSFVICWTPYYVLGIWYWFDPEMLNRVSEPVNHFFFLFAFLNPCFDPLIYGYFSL
In short: as §1

[4] = target: T3, mouse GnRH receptors (Mus musculus, UniProt Q01776); experiment: as above; conditions: Mouse GnRH receptor; competition with 125I-GnRH-A; Ki calculated from IC50 (Cheng et al.)
T3 construct: expressed in transfected cells; host or cells: HEK 293
T3 sequence (Q01776 1-327): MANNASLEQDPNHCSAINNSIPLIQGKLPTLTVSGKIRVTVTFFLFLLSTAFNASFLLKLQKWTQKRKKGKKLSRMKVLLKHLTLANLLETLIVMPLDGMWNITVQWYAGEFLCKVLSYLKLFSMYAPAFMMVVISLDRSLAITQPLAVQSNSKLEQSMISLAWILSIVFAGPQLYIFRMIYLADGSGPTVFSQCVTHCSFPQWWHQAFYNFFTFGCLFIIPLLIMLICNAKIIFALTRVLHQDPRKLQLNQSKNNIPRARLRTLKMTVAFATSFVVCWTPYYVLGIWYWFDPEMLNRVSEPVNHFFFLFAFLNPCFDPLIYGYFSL
In short: as §1

[5] = In vitro metabolism: disappearance of parent compound in liver microsomes (female rat); type: in vitro ADME; conditions: 5 uM compound, 0.5 mg/ml microsomal protein, 2 mM NADPH, 30 minutes at 37° C.
Description: as §2

[6] = Pharmacokinetics in female rats; type: in vivo, rat; conditions: for FR Fp.o.: AUCp.o./AUCi.v.; for Tmax: rat, plasma, po, dose and vehicle per footnote, read-out: FR Tmax hr
Description: Rats (male or female, 200-225 g) are prepared with indwelling jugular vein cannula as described by Harms et al., Applied Physiol. 36:391-398 (1974), and allowed to recover overnight with free access to the standard vivarium chow and water. […] […] The blood samples are withdrawn at specific times, plasma is immediately separated and compound extracted with ethyl acetate. The samples are analyzed by LC-MS using 30-90% gradient of ACN in 50 mM ammonium acetate.
The pharmacokinetic parameters are calculated using WinNonlin software (Scientific Consulting Inc.). The bioavailability is calculated as AUCp.o./AUCi.v., where AUCp.o. and AUCi.v. are areas under the plasma concentration-time curve after oral and i.v. administration, respectively.

[7] = In vitro metabolism: disappearance of parent compound in liver microsomes (male rat); type: in vitro ADME; conditions: 5 uM compound, 0.5 mg/ml microsomal protein, 2 mM NADPH, 30 minutes at 37° C.
Description: as §2

[8] = 10 mg/kg as 5 mg/ml solution in 10% DMSO 105 cremophor 80% saline
[9] = 10 mg/kg as 5 mg/ml solution in 10% cremophor 90% saline

Molecule	Ki [1] [µM]	Huma % p. 30′ [2] [%]	Ki [3] [µM]	Ki [4] [µM]	Fem. t % rem. 30′ [5] [%]	FR Fp.o. [6, 8] [%^2]	Tmax [6] [min]	Male t % p. 30′ [7]	FR Fp.o. [6, 9] [%^3]	FR Fp.o. ([6]; 10 mg/kg as 5 mg/ml solution in 10% EtOH 10% cremophor 80% saline) [%^4]
COc1cc2c(cc1Oc1ccc(C(=O)NNc3cc(C)c4c(C)nn(C)c4n3)o1)C(C)(C)CC2=O [Example I5, 5-[(6-Methoxy-3,3-dimethyl-1-oxo-2,3-dihydro-1H-inden-5-yl)oxy]-N′-(1,3,4-trimethyl-1H-pyrazolo[3,4-b]pyridin-6-yl)-2-furohydrazide]	1.21	58								
Cc1ccc(C(C)(C)C)cc1Cc1ccc(C(=O)NNc2cc(C)c3c(C)nn(C)c3n2)o1 [Example J7, 5-[5-(tert-butyl)-2-methylbenzyl]-N′-(1,3,4-trimethyl-1H-pyrazolo[3,4-b]pyridin-6-yl)-2-furohydrazide]	0.035	57	0.02	0.05	9	4	30	89%		
Cc1cc2c(cc1Cc1ccc(C(=O)NNc3ccc(C(F)(F)F)cn3)o1)C(C)(C)CCC2(C)C [Example C9, 5-[(3,5,5,8,8-Pentamethyl-5,6,7,8-tetrahydro-2-naphthalenyl)methyl]-N′-[5-(trifluoromethyl)-2-pyridinyl]-2-furohydrazide]	0.061	61	0.047	0.03	14			94%		
Cc1cc2c(cc1Oc1ccc(C(=O)NNc3cc(C)c4c(C)nn(C)c4n3)o1)C(C)(C)CCC2(C)C [Example F2]	0.0033	65	0.0085	0.0082	22		30	93%	8	
COc1cc(C)c(Cl)c(C)c1Cc1ccc(C(=O)NNc2cc(C)c3c(C)nn(C)c3n2)o1 [Example J1]	0.45						60	99% and 95%		
Cc1cc2c(cc1Cc1ccc(C(=O)NNc3ccc4ccccc4n3)o1)C(C)(C)CCC2(C)C [Example C5, 5-[(3,5,5,8,8-Pentamethyl-5,6,7,8-tetrahydro-2-naphthalenyl)methyl]-N′-(2-quinolinyl]-2-furohydrazide]	0.025	52	0.012	0.01						
Cc1cc2c(cc1Cc1ccc(C(=O)NNc3cc(C)c4c(C)nn(C)c4n3)o1)C(C)(C)OC2(C)C [Example E1, 5-[(1,1,3,3,6-pentamethyl-1,3-dihydro-2-benzofuran-5-yl)methyl]-N′-(1,3,4-trimethyl-1H-pyrazolo[3,4-b]pyridin-6-yl)-2-furohydrazide]	0.0042	43	0.009	0.012	27		60	96%		57
CC(=O)c1c(NNC(=O)c2ccc(Cc3cc4c(cc3C)C(C)(C)OC4(C)C)o2)nc2c(c(C)nn2C)c1C [Example E2, N-(5-acetyl-1,3,4-trimethyl-1H-pyrazolo[3,4-b]pyridin-6yl)-5-[(1,1,3,3,6-pentamethyl-1,3-dihydro-2-benzofuran-5-yl)methyl]-2-furohydrazide]	0.3	30								
Cc1cc(C)c(Cc2ccc(C(=O)NNc3cc(C)c4c(C)nn(C)c4n3)o2)c(C)c1Br [Example J2]	0.55						30		6	
Cc1cc2c(cc1Cc1ccc(C(=O)NNc3nc(N)nc(C4CC4)n3)o1)C(C)(C)CCC2(C)C [Example C6, N′-(4-amino-6-cyclopropyl-1,3,5-triazin-2-yl)-5-[(3,5,5,8,8-pentamethyl-5,6,7,8-tetrahydro-2-naphthalenyl)methyl]-2-furohydrazide]	0.042	75	0.006	0.018		<1		95%		
5-{[-3,5,5,6,8,8-Hexamethyl-5,6,7,8-tetrahydro-2-naphthalenyl]oxy}-N′-(1,3-dimethyl-1H-pyrazolo[3,4-b]pyridin-6-yl)-2-furo hydrazide [Example F1]	0.002	41	0.0052	0.0035	24				5	
Cc1cc(Cl)c(C(C)C)c(Oc2ccc(C(=O)NNc3cc(C)c4c(C)nn(C)c4n3)o2)c1 [Example I3, 5-(3-Chloro-2-isopropyl-5-methylphenoxy)-N′-(1,3,4-trimethyl-1H-pyrazolo[3,40b]pyridin-6-yl)-2-furohydrazide]	5.77	43								
Cc1cc2c(cc1Cc1ccc(C(=O)NNc3ncc(C(F)(F)F)cc3Cl)o1)C(C)(C)CCC2(C)C [Example C12, N′-[3-Chloro-5-(trifluoromethyl)-2-pyridinyl]-5-[(3,5,5,8,8-pentamethyl-5,6,7,8-tetrahydro-2-naphthalenyl)methyl]-2-furohydrazide]	0.046		0.039	0.033						
